Test results taken from patent publication US6737383B1, “Herbicidal oxadiazolidines” (priority 1999, dated 2004).

Columns and labels:
giant foxtail = experiment: Test B pre/postemergence giant foxtail; format: in vivo, Setaria faberii
In short: (§1)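 Test chemicals in a non-phytotoxic solvent mixture with surfactant were sprayed preemergence onto planted seeds and postemergence onto plants 2 to 18 cm tall (1- to 4-leaf stage). After twelve to sixteen days in a greenhouse, injury was visually rated against untreated controls from 0 (no effect) to 10 (complete control).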

surinam grass = experiment: Test B pre/postemergence surinam grass; format: in vivo, Brachiaria decumbens; conditions: Postemergence
In short: as §1

pigweed = experiment: Test B pre/postemergence pigweed; format: in vivo, Amaranthus retroflexus
In short: as §1

wild oat = experiment: Test B pre/postemergence wild oat; format: in vivo, Avena fatua
In short: as §1

bedstraw = experiment: Test B pre/postemergence bedstraw; format: in vivo, Galium aparine
In short: as §1

crabgrass = experiment: Test B pre/postemergence crabgrass; format: in vivo, Digitaria sanguinalis
In short: as §1

cocklebur = experiment: Test B pre/postemergence cocklebur; format: in vivo, Xanthium strumarium
In short: as §1

velvetleaf = experiment: Test B pre/postemergence velvetleaf; format: in vivo, Abutilon theophrasti
In short: as §1

sugar beet = experiment: Test B pre/postemergence sugar beet; format: in vivo, Beta vulgaris
In short: as §1

morningglory = experiment: Test B pre/postemergence morningglory; format: in vivo, Ipomoea hederacea
In short: as §1

rape = experiment: Test B pre/postemergence rape; format: in vivo, Brassica napus; conditions: Preemergence
In short: as §1

soybean = experiment: Test B pre/postemergence soybean; format: in vivo, Glycine max
In short: as §1

purple nutsedge = experiment: Test B pre/postemergence purple nutsedge; format: in vivo, Cyperus rotundus
In short: as §1

blackgrass = experiment: Test B pre/postemergence blackgrass; format: in vivo, Alopecurus myosuroides
In short: as §1

corn = experiment: Test B pre/postemergence corn; format: in vivo, Zea mays
In short: as §1

wheat = experiment: Test B pre/postemergence wheat; format: in vivo, Triticum aestivum
In short: as §1

[1] = Postemergence, Rate 62 g/ha, scale 0 to 10, 0 is no effect, 10 is complete control
[2] = Postemergence, Rate 125 g/ha, scale of 0 to 10 where 0 is no effect and 10 is complete control
[3] = Postemergence, Rate 500 g/ha, scale 0 (no effect) to 10 (complete control)
[4] = Preemergence, Rate 250 g/ha, scale 0 (no effect) to 10 (complete control)
[5] = Rate 62 g/ha, Preemergence, scale 0 to 10
[6] = Rate 125 g/ha, Preemergence, scale 0 to 10 (0 no effect, 10 complete control)
[7] = Rate 250 g/ha, Postemergence, scale 0 to 10, 0 is no effect, 10 is complete control
[8] = Rate 500 g/ha, Preemergence, scale 0 to 10 (0 no effect, 10 complete control)

C#CCCn1c(=O)on(C(=O)N(c2ccc(F)cc2)C(C)C)c1=O [Compound 767]
Plant response rating, Giant foxtail (giant foxtail; [1]): 8
Giant foxtail plant response rating (giant foxtail; [2]): 8
Giant foxtail plant response rating (giant foxtail; [3]): 9
Giant foxtail plant response rating (giant foxtail; [4]): 10
Giant foxtail plant response rating (giant foxtail; [5]): 10
Giant foxtail plant response rating (giant foxtail; [6]): 10
Giant foxtail plant response rating (giant foxtail; [7]): 9
Giant foxtail plant response rating (giant foxtail; [8]): 10
Plant response rating, B. signalgrass (surinam grass; Rate 62 g/ha, scale 0 to 10, 0 is no effect, 10 is complete control): 2
B. signalgrass plant response rating (surinam grass; Rate 125 g/ha, scale of 0 to 10 where 0 is no effect and 10 is complete control): 2
B. signalgrass plant response rating (surinam grass; Rate 250 g/ha, scale 0 to 10, 0 is no effect, 10 is complete control): 6
B. signalgrass plant response rating (surinam grass; Rate 500 g/ha, scale 0 to 10, 0 is no effect, 10 is complete control): 7
Plant response rating, Redroot pigweed (pigweed; [1]): 6
Redroot pigweed plant response rating (pigweed; [2]): 9
Redroot pigweed plant response rating (pigweed; [3]): 9
Redroot pigweed plant response rating (pigweed; [5]): 10
Redroot pigweed plant response rating (pigweed; [6]): 10
Redroot pigweed plant response rating (pigweed; [7]): 9
Redroot pigweed plant response rating (pigweed; [8]): 10
Plant response rating, Wild oats (wild oat; [1]): 0
Wild oats plant response rating (wild oat; [3]): 3
Wild oats plant response rating (wild oat; [5]): 9
Wild oats plant response rating (wild oat; [7]): 0
Wild oats plant response rating (wild oat; [8]): 9
Plant response rating, Bedstraw (bedstraw; [1]): 7
Bedstraw plant response rating (bedstraw; [2]): 7
Bedstraw plant response rating (bedstraw; [3]): 9
Bedstraw plant response rating (bedstraw; [6]): 0
Bedstraw plant response rating (bedstraw; [7]): 7
Bedstraw plant response rating (bedstraw; [8]): 8
Plant response rating, Crabgrass (crabgrass; [1]): 8
Crabgrass plant response rating (crabgrass; [2]): 8
Crabgrass plant response rating (crabgrass; [3]): 9
Crabgrass plant response rating (crabgrass; [4]): 10
Crabgrass plant response rating (crabgrass; [5]): 10
Crabgrass plant response rating (crabgrass; [6]): 10
Crabgrass plant response rating (crabgrass; [7]): 9
Crabgrass plant response rating (crabgrass; [8]): 10
Plant response rating, Cocklebur (cocklebur; [1]): 2
Cocklebur plant response rating (cocklebur; [2]): 2
Cocklebur plant response rating (cocklebur; [3]): 2
Cocklebur plant response rating (cocklebur; [4]): 0
Cocklebur plant response rating (cocklebur; [5]): 0
Cocklebur plant response rating (cocklebur; [6]): 0
Cocklebur plant response rating (cocklebur; [7]): 2
Cocklebur plant response rating (cocklebur; [8]): 0
Plant response rating, Velvetleaf (velvetleaf; [1]): 2
Velvetleaf plant response rating (velvetleaf; [3]): 3
Velvetleaf plant response rating (velvetleaf; [5]): 0
Velvetleaf plant response rating (velvetleaf; [6]): 0
Velvetleaf plant response rating (velvetleaf; [7]): 2
Velvetleaf plant response rating (velvetleaf; [8]): 2
Plant response rating, Sugarbeets (sugar beet; [1]): 3
Sugarbeets plant response rating (sugar beet; [3]): 7
Sugarbeets plant response rating (sugar beet; [5]): 2
Sugarbeets plant response rating (sugar beet; [6]): 6
Sugarbeets plant response rating (sugar beet; [7]): 5
Sugarbeets plant response rating (sugar beet; [8]): 9
Plant response rating, Morningglory (morningglory; [1]): 5
Morningglory plant response rating (morningglory; [2]): 5
Morningglory plant response rating (morningglory; [3]): 7
Morningglory plant response rating (morningglory; [5]): 0
Morningglory plant response rating (morningglory; [6]): 0
Morningglory plant response rating (morningglory; [7]): 5
Morningglory plant response rating (morningglory; [8]): 0
Rape plant response rating (rape; Rate 62 g/ha, scale 0 to 10): 4
Rape plant response rating (rape; Rate 125 g/ha, scale 0 to 10 (0 no effect, 10 complete control)): 6
Rape plant response rating (rape; Rate 500 g/ha, scale 0 to 10 (0 no effect, 10 complete control)): 10
Plant response rating, Soybean (soybean; [1]): 1
Soybean plant response rating (soybean; [3]): 7
Soybean plant response rating (soybean; [5]): 0
Soybean plant response rating (soybean; [6]): 0
Soybean plant response rating (soybean; [7]): 4
Soybean plant response rating (soybean; [8]): 2
Plant response rating, Nutsedge (purple nutsedge; [1]): 0
Nutsedge plant response rating (purple nutsedge; [2]): 0
Nutsedge plant response rating (purple nutsedge; [3]): 7
Nutsedge plant response rating (purple nutsedge; [5]): 0
Nutsedge plant response rating (purple nutsedge; [6]): 0
Nutsedge plant response rating (purple nutsedge; [7]): 0
Nutsedge plant response rating (purple nutsedge; [8]): 0
Plant response rating, Blackgrass (blackgrass; [1]): 9
Blackgrass plant response rating (blackgrass; [2]): 9
Blackgrass plant response rating (blackgrass; [3]): 9
Blackgrass plant response rating (blackgrass; [4]): 10
Blackgrass plant response rating (blackgrass; [5]): 10
Blackgrass plant response rating (blackgrass; [6]): 10
Blackgrass plant response rating (blackgrass; [7]): 9
Blackgrass plant response rating (blackgrass; [8]): 10
Plant response rating, Corn (corn; [1]): 0
Corn plant response rating (corn; [2]): 0
Corn plant response rating (corn; [3]): 2
Corn plant response rating (corn; [4]): 0
Corn plant response rating (corn; [5]): 0
Corn plant response rating (corn; [6]): 0
Corn plant response rating (corn; [7]): 0
Corn plant response rating (corn; [8]): 5
Plant response rating, Wheat (wheat; [1]): 0
Wheat plant response rating (wheat; [3]): 2
Wheat plant response rating (wheat; [5]): 0
Wheat plant response rating (wheat; [6]): 5
Wheat plant response rating (wheat; [7]): 2
Wheat plant response rating (wheat; [8]): 5
